One data set deals with erythrocytes. Particulars: very low concentration (lower than 5 μM); cited from earlier work.
The next data set relates to lung cancer cells. The experiment in a line: Xenograft model of lung cancer in nude mice, tumor volume. Format: in vivo, nude mice (NU/NU). As for the experimental part:
The polypeptide of the present invention is preventively injected into the rear parts of the necks of four nude mice (nude mice—NU/NU) for a week (5 times per week at a dose of 50 mg/Kg). Next, 1×10^6 lung cancer cells are injected into the hypodermic tissue of the right side of the abdomen of each nude mouse on Day 1. The abovementioned four nude mice function as the medicine test group. Next, the polypeptide is delivered to each nude mouse of the medicine test group at a dose of 50 mg/Kg 5 times per week from Day 1 to Day 43. Meanwhile, the weight and cancer size of each nude mouse of the medicine test group is recorded. […] Normal saline having a pH of 7.2-7.4 is subcutaneously injected into the four nude mice of the negative control group for a week (5 times per week). Next, 1×10^6 lung cancer cells are injected into the hypodermic tissue of the right side of the abdomen of each nude mouse of the negative control group on Day 1. Next, normal saline is delivered to each nude mouse of the negative control group 5 times per week from Day 1 to Day 43. Meanwhile, the weight and cancer size of each nude mouse of the negative control group is recorded. […] 1×10^6 lung cancer cells are injected into the hypodermic tissue of the right side of the abdomen of each nude mouse of the positive control group on Day 1. Next, a small-molecule anti-cancer drug Doxorubicin is intravenously injected into a region near the abdomen of each nude mouse of the positive control group once per week at a dose of 5 mg/Kg from Day 1 to Day 43 (refer to F Pastorino et. al., Clin. Cancer Res. 14(22): 7320-7329, 2008). Meanwhile, the weight and cancer size of each nude mouse of the positive control group is recorded. Different from the abovementioned two groups, medicine is not applied to the positive control group before Day 1. […] The mice of the three groups are dissected for examining and recording the weight of the tumor tissue on Day 43.

Data set [1] in a line: Weights, motility and side effects of nude mice in the xenograft experiment. Format: in vivo, nude mice (NU/NU). As for the experimental part: The polypeptide of the present invention is preventively injected into the rear parts of the necks of four nude mice (nude mice—NU/NU) for a week (5 times per week at a dose of 50 mg/Kg). Next, 1×10^6 lung cancer cells are injected into the hypodermic tissue of the right side of the abdomen of each nude mouse on Day 1. The abovementioned four nude mice function as the medicine test group. Next, the polypeptide is delivered to each nude mouse of the medicine test group at a dose of 50 mg/Kg 5 times per week from Day 1 to Day 43. Meanwhile, the weight and cancer size of each nude mouse of the medicine test group is recorded. The negative control group also has four nude mice. Normal saline having a pH of 7.2-7.4 is subcutaneously injected into the four nude mice of the negative control group for a week (5 times per week). Next, 1×10^6 lung cancer cells are injected into the hypodermic tissue of the right side of the abdomen of each nude mouse of the negative control group on Day 1. Next, normal saline is delivered to each nude mouse of the negative control group 5 times per week from Day 1 to Day 43. Meanwhile, the weight and cancer size of each nude mouse of the negative control group is recorded. The positive control group also has four nude mice. 1×10^6 lung cancer cells are injected into the hypodermic tissue of the right side of the abdomen of each nude mouse of the positive control group on Day 1. Next, a small-molecule anti-cancer drug Doxorubicin is intravenously injected into a region near the abdomen of each nude mouse of the positive control group once per week at a dose of 5 mg/Kg from Day 1 to Day 43 (refer to F Pastorino et. al., Clin. Cancer Res. 14(22): 7320-7329, 2008). Meanwhile, the weight and cancer size of each nude mouse of the positive control group is recorded. Different from the abovementioned two groups, medicine is not applied to the positive control group before Day 1. The medicine test group, negative control group and positive group are observed until Day 43. The mice of the three groups are dissected for examining and recording the weight of the tumor tissue on Day 43.

For the compound `CC[C@H](C)[C@H](NC(=O)CN)C(=O)NCC(=O)N[C@@H](C)C(=O)N[C@H](C(=O)N[C@@H](CC(C)C)C(=O)N[C@@H](CCCCN)C(=O)N[C@H](C(=O)N[C@@H](CC(C)C)C(=O)N[C@H](C(=O)N[C@H](C(=O)NCC(=O)N[C@@H](CC(C)C)C(=O)N1CCC[C@H]1C(=O)N[C@@H](C)C(=O)N[C@@H](CC(C)C)C(=O)N[C@H](C(=O)N[C@@H](CO)C(=O)N[C@@H](Cc1c[nH]c2ccccc12)C(=O)N[C@H](C(=O)N[C@@H](CCCCN)C(=O)N[C@@H](CCCNC(=N)N)C(=O)N[C@@H](CCCCN)C(=O)N[C@@H](CCCNC(=N)N)C(=O)N[C@@H](CCC(N)=O)C(=O)N[C@@H](CCC(N)=O)C(N)=O)[C@@H](C)CC)[C@@H](C)CC)[C@@H](C)O)[C@@H](C)O)C(C)C)C(C)C` [melittin], the erythrocytes damaged entry with erythrocytes is “about 90%”.
For the compound `COc1cccc2c1C(=O)c1c(O)c3c(c(O)c1C2=O)C[C@@](O)(C(=O)CO)C[C@@H]3O[C@H]1C[C@H](N)[C@H](O)[C@H](C)O1` [Dox, Doxorubicin], the “Tumor Volumes of Nude Mice” value with lung cancer cells (D22, polypeptide 50 mg/Kg s.c. 5 times per week (plus one week before D1), Dox 5 mg/Kg i.v. once per week) was determined as 57.8 mm^3; in the data set with lung cancer cells (D29, same dosing) it was 373.8 mm^3; in the data set on lung cancer cells (D33, same dosing), 553.5 mm^3; in the data set with lung cancer cells (D36, same dosing), 632.6 mm^3; in the data set on lung cancer cells (D40, same dosing), 884.5 mm^3; with lung cancer cells (D43, same dosing) it was 1308.9 mm^3. The “ratio of the average tumor volumes of treated group and negative control group (saline)” value is 52.0% in the data set on lung cancer cells (at best, Day 40) and 83.05% in the data set on lung cancer cells (end of the experiment (Day 43)). The “Weights of Nude Mice” value in data set [1] (D1, polypeptide 50 mg/Kg s.c. 5 times per week (plus one week before D1), Dox 5 mg/Kg i.v. once per week) stood at 25.6 gram; in data set [1] (D5, same dosing), 26.5 gram; in data set [1] (D8, same dosing), 27.8 gram; in data set [1] (D12, same dosing), 28.2 gram; in data set [1] (D15, same dosing), 28.8 gram; in data set [1] (D19, same dosing) it was 30.4 gram. Moreover, the “Weights of Nude Mice” value in data set [1] (D22, same dosing) is reported as 30.0 gram; in data set [1] (D26, same dosing), 30.4 gram; in data set [1] (D29, same dosing) it was 30.0 gram; in data set [1] (D33, same dosing) it was 31.5 gram; in data set [1] (D36, same dosing), 32.1 gram; in data set [1] (D40, same dosing), 32.5 gram. Also, the “Weights of Nude Mice” value in data set [1] (D43, same dosing) is listed as 32.8 gram. For the same compound, in data set [1] (Day 1 to Day 43), the “weights and motilities during the experiment” value is on record as “do not vary significantly”.

Source of the values: patent US20130231458A1, “POLYPEPTIDE FOR PREVENTING AND TREATING CELL HYPERPLASIA” (priority 2011, published 2013).
